The results in this text go back to ChEMBL document CHEMBL1129720, “(S)-4-amino-5-chloro-3-iodo-2-methoxy-N-(1-azabicyclo[2.2.2]oct-3-yl)benzamide (TRIZAC), a high-affinity ligand for the 5-HT-3 receptor” (Bioorg Med Chem Lett, 1996).

SMILES strings stand for the structures.

The target of data set [1] is T1, 5-hydroxytryptamine receptor 3A (Rattus norvegicus, UniProt P35563).
T1 sequence (P35563 whole entry): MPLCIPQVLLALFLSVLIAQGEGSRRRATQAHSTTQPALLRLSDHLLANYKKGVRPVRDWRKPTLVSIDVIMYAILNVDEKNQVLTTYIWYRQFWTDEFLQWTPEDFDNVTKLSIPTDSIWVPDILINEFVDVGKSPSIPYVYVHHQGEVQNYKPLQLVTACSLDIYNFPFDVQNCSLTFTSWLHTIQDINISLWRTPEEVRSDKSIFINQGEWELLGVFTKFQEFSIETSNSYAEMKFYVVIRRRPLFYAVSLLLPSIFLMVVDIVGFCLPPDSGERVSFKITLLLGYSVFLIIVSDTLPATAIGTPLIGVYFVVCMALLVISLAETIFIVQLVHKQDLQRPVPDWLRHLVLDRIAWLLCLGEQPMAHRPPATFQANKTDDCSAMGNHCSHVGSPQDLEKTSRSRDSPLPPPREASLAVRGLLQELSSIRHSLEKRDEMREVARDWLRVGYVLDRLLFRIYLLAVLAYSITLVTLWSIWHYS
In words: Compound was tested in vitro for its antagonistic activity against 5-hydroxytryptamine 3 receptor. In kind it is functional.

For data set [2], the target named is T1, 5-hydroxytryptamine receptor 3A. In words: Compound was tested for its binding affinity towards 5-HT-3 receptor in whole rat brain using (S)-[125I]-zacopride as the radioligand.
The target is the same in data set [3]. Nature of the data set: Compound was tested for its binding affinity towards 5-hydroxytryptamine 3 receptor in whole rat brain using [125I]DAIZAC as the radioligand.
Data set [4] can be described thus: Apparent lipophilicity value of the compound. Conditions: octanol/water. In kind it is physicochemical.
The target of data set [5] is T1, 5-hydroxytryptamine receptor 3A. In words: Compound was tested for its binding affinity towards 5-hydroxytryptamine 3 receptor.
Data set [6] shares this target. In words: Compound was tested for its antagonistic activity against 5-hydroxytryptamine 3 receptor in rat brain using [3H]zacopride as the radioligand. In kind it is functional, tissue-based.
For data set [7] the target is unchanged. Nature of the data set: Compound was tested in vitro for its antagonistic activity against 5-hydroxytryptamine 3 receptor in rat CNS. In kind it is functional.
For data set [8] the target is unchanged. Nature of the data set: Compound was tested for its binding affinity towards 5-hydroxytryptamine 3 receptor in whole rat brain using (S)-[125I]-zacopride as the radioligand.

Take `COc1c(I)cc(Cl)cc1C(=O)N[C@@H]1CN2CCC1CC2`: binding in data set [1] was characterised by a dissociation constant (Kd) of 0.15 nM.

As for `COc1c(C(=O)N[C@@H]2CN3CCC2CC3)cc(Cl)c(N)c1I`, the inhibition constant (Ki) – broadly, a measure of affinity in units of concentration, obtained from inhibition or displacement – came out at 0.052 nM in data set [2], 0.075 nM in data set [3] and 0.05 nM in data set [5]. The logD (usually the decadic logarithm of the distribution of all forms, ionised or not, between an organic phase and buffer at a given pH) in data set [4] came out at 2.12.

For `COc1cc(N)c(Cl)cc1C(=O)NC1CN2CCC1CC2` (centres undefined) [ZACOPRIDE], the dissociation constant Kd – broadly, the concentration at which binding is half-saturated – in data set [6] amounted to 0.6 nM.

In data set [7], `COc1cc(N)c(I)cc1C(=O)NC1CN2CCC1CC2` (centres undefined) registered an equilibrium dissociation constant (Kd) of 2.6 nM. Further, the inhibition constant Ki amounted to 1.37 nM in data set [3] and 1.07 nM in data set [8].
